In patent US20230277483A1, “COMPOSITIONS AND METHODS TO TREAT INFLAMMATION” (University of Iowa Research Foundation, priority 2022, published 2023):

How the values were obtained:
[1] = system: human gingival fibroblasts (HGF); assay: Proinflammatory cytokines after Pg-LPS challenge (qRT-PCR, ELISA, antibody array); assay type: cell-based
Experimental: (§1) Sg metabolites modulate proinflammatory cytokines in human periodontal associated cells in vitro. Sg were cultured in a total of 40 ml DMEM for 24 hrs. After 200 μl of Sg suspension reached 0.2 at OD600 value in a 96-well plate, the Sg metabolites were collected by centrifugation at 3000 g for 10 min and then filtered through a 0.22 μm filter. No toxicity of Sg metabolites was detected using an MTT assay on primary human bone marrow mesenchymal stromal cells (BMSCs) and primary human gingival fibroblasts (HGF) (data no shown). The modulation of Sg metabolites on inflammatory cytokines was tested using human monocyte-derived macrophages (MDM) and HGF. The MDM were generated by inducing a human macrophage cell line (THP-1) using PMA at 10 ng/ml. The MDM at 2×10^6 cells/per well and HGF at 2×10^4 cells/per well were cultured in 24-well plates using DMEM with 10% FBS and 1% PS. The Sg metabolites at 1 and 5% v/v were added and incubated for 24 hrs before challenging with Pg-LPS at 100 ng/ml.
L-Norleucine as well as other metabolites modulate proinflammatory cytokines in macrophages and HGF. L-Norleucine was obtained commercially (Sigma) and dissolved in DMEM. Mouse macrophages and human HGF were cultured with DMEM supplemented with different concentrations of L-Norleucine and subsequently challenged with Pg-LPS at 100 ng/ml.
(§2) Human monocyte-derived macrophages (MDM) using THP-1 cells and HGF were cultured in a 24-well plate with DMEM and challenged with Pg-LPS at 100 ng/ml.
(§3) In addition, freshly isolated epidydimal white adipose tissues (eWAT) from mice on a HFD for 16 weeks were minced and cultured in 24-well plates and treated with HCA at 0.5 and 1.0 μM in DMEM/F-12 containing 10% cosmic calf serum (CCS) and 1% penicillin-streptomycin (basal growth media, BGM). […] These preliminary data are strong evidence that Sg metabolites have the potential to modulate host inflammatory responses and attenuate inflammation.
HCA promotes proliferation of health related bacteria and inhibits proliferation and attachment of periodontopathogenic bacteria. Promoting the growth of health-related commensal bacteria while inhibiting proliferation and attachment of pathogenic bacteria may be effective at preventing or treating periodontal inflammation. To determine if HCA has an effect on the growth properties of commensal bacteria and periodontopathogens, HCA at different concentrations was added to aerobic culture of S. mitis and S. oralis and anaerobic culture of T. denticola as described in our published manuscript (see detail in Shu et al, Journal of Periodontology, 2022). FIGS. 18A-C summarize the functions of HCA on the proliferation of specific commensal and pathogenic bacteria. […] Furthermore, the function of HCA on P. gingivalis attachment, a key parameter of adhesion and biofilm formation by periodontopathogenic bacteria, was investigated. […] Attachment measurements of P. gingivalis were performed based on our published studies (see detail in Shu et al, Journal of Periodontology, 2022). […] To test the biocompatibility and anti-inflammatory properties of HCA, human monocyte-derived macrophages (MDM) and gingival fibroblasts (HGF) were prepared as described in our previous studies. The cells were then treated with HCA from 0.1 to 50 μM. No toxicity was observed after treatment with different concentrations of HCA in either cell type using an MTT assay (FIGS. 19A and B, left column). The anti-inflammatory function of HCA on MDM and HGF after exposure to P. gingivalis lipopolysaccharide (PG-LPS) was investigated. […] HCA mitigates inflammation and affects the composition of microbiomes in vivo. Recent studies investigated whether HCA modulates periodontal inflammation using a mouse model. To induce periodontal inflammation, a total of 1 μl Pg-LPS at 10 μg/μl was directly injected twice a week into the interdental region between maxillary molars of C57BL/6J mice using a Hamilton1700 series syringe according to our previously published studies. […]

[2] = system: human monocyte-derived macrophages (MDM) using THP-1 cells; assay: Proinflammatory cytokines after Pg-LPS challenge (qRT-PCR, ELISA); assay type: cell-based
Experimental: as §1, §2, §3
HCA promotes proliferation of health related bacteria and inhibits proliferation and attachment of periodontopathogenic bacteria. Promoting the growth of health-related commensal bacteria while inhibiting proliferation and attachment of pathogenic bacteria may be effective at preventing or treating periodontal inflammation. To determine if HCA has an effect on the growth properties of commensal bacteria and periodontopathogens, HCA at different concentrations was added to aerobic culture of S. mitis and S. oralis and anaerobic culture of T. denticola as described in our published manuscript (see detail in Shu et al, Journal of Periodontology, 2022). FIGS. 18A-C summarize the functions of HCA on the proliferation of specific commensal and pathogenic bacteria. […] Furthermore, the function of HCA on P. gingivalis attachment, a key parameter of adhesion and biofilm formation by periodontopathogenic bacteria, was investigated. […] Attachment measurements of P. gingivalis were performed based on our published studies (see detail in Shu et al, Journal of Periodontology, 2022). […] To test the biocompatibility and anti-inflammatory properties of HCA, human monocyte-derived macrophages (MDM) and gingival fibroblasts (HGF) were prepared as described in our previous studies. The cells were then treated with HCA from 0.1 to 50 μM. No toxicity was observed after treatment with different concentrations of HCA in either cell type using an MTT assay (FIGS. 19A and B, left column). The anti-inflammatory function of HCA on MDM and HGF after exposure to P. gingivalis lipopolysaccharide (PG-LPS) was investigated. […] HCA mitigates inflammation and affects the composition of microbiomes in vivo. Recent studies investigated whether HCA modulates periodontal inflammation using a mouse model. To induce periodontal inflammation, a total of 1 μl Pg-LPS at 10 μg/μl was directly injected twice a week into the interdental region between maxillary molars of C57BL/6J mice using a Hamilton1700 series syringe according to our previously published studies. 100 μl of HCA at 0.5 μM was administrated I.P. three time a week. […] It was also tested whether HCA affects the composition of the microbiome in vivo. For this purpose, high fat diet-induced obese (DIO) mice (The Jackson Laboratory) received I.P, administration of 100 μl of HCA at 0.2 and 0.5 μM three times a week for 3 weeks. […]

[3] = HCA at 0.1 μM, 6 hours following PG-LPS challenge at 0.1 μg/mL
[4] = HCA at 0.1 and 1.0 μM, Pg-LPS at 100 ng/ml, after 6 hrs
[5] = at 0.1 μg after Pg-LPS challenge

In the case of `O=C(O)CCCCCO` [HCA, 6-hydroxycaproic acid], the “transcripts of IL-1β, IL-6, and IL-8” value [1, 3] is reported as “significantly downregulated”, the “protein levels of IL-6 and IL-8” value ([1]; HCA at 0.1 μM, HGF lysate, after 24 hrs) is reported as “significantly reduced” and the “transcripts of IL-1β, 6, and 8” value [1, 4] is reported as “significantly downregulated”. The “proinflammatory cytokines (transcripts of IL-1β, 6 and 8)” value [1, 5] was “modulate”, the “transcripts of IL-1β, IL-6, and IL-8” value [2, 3] was “significantly downregulated” and the “protein levels of IL-6 and IL-8” value ([2]; HCA at 0.1 μM, supernatant, after 24 hrs) was “significantly reduced”. For the same molecule, the “transcripts of IL-1β, 6, and 8” value [2, 4] was “significantly downregulated” and the “proinflammatory cytokines (IL-6 transcript and IL-6 protein in supernatants)” value [2, 5] was “modulate”.
